Records with an inconclusive call do not appear.
Test system: BDF1 mice, M5076 sarcoma s.c., survival/tumor T/C
Assay: NCI In Vivo Anticancer Drug Screen. Data for tumor model Sarcoma M5076 (subcutaneous) in B6D2F1 (BDF1) mice
Method: The antitumor activity of compounds was measured in mice bearing transplantable tumors. Survival or tumor size were measured and the results are expressed as the measurement made in the treated group (T) divided by the measurement made in the vehicle treated control group (C). The tumor model used in this assay is Sarcoma M5076 (subcutaneous) in B6D2F1 (BDF1) mice

**Q.** What does the source list for `O=C1N[C@H]2[C@H](O)[C@H](O)[C@@H](O)[C@H](O)[C@@H]2c2cc3c(c(O)c21)OCO3`?
**A.** T/C (endpoint: median survival time, dose: 0.38 mg/kg/injection, schedule: Q01DX009 (ip), vehicle: saline + alcohol, higher = longer survival): 101 % of control; T/C (endpoint: median survival time, dose: 0.75 mg/kg/injection, schedule: Q01DX009 (ip), vehicle: saline + Tween-80 + alcohol, higher = longer survival): 106 % of control; T/C (endpoint: median survival time, dose: 0.75 mg/kg/injection, schedule: Q01DX009 (ip), vehicle: saline + alcohol, higher = longer survival): 89 % of control; T/C (endpoint: median survival time, dose: 1.5 mg/kg/injection, schedule: Q01DX009 (ip), vehicle: saline + Tween-80 + alcohol, higher = longer survival): 111 % of control; T/C (endpoint: median survival time, dose: 1.5 mg/kg/injection, schedule: Q01DX009 (ip), vehicle: saline + alcohol, higher = longer survival): 94 % of control; T/C (endpoint: median survival time, dose: 3.0 mg/kg/injection, schedule: Q01DX009 (ip), vehicle: saline + alcohol, higher = longer survival): 120 % of control; T/C (endpoint: median tumor weight (est.), dose: 0.38 mg/kg/injection, schedule: Q01DX009 (ip), vehicle: saline + alcohol, higher = larger tumour): 103 % of control; T/C (endpoint: median tumor weight (est.), dose: 0.75 mg/kg/injection, schedule: Q01DX009 (ip), vehicle: saline + Tween-80 + alcohol, higher = larger tumour): 80 % of control; T/C (endpoint: median tumor weight (est.), dose: 0.75 mg/kg/injection, schedule: Q01DX009 (ip), vehicle: saline + alcohol, higher = larger tumour): 96 % of control; T/C (endpoint: median tumor weight (est.), dose: 1.5 mg/kg/injection, schedule: Q01DX009 (ip), vehicle: saline + Tween-80 + alcohol, higher = larger tumour): 49 % of control; T/C (endpoint: median tumor weight (est.), dose: 1.5 mg/kg/injection, schedule: Q01DX009 (ip), vehicle: saline + alcohol, higher = larger tumour): 64 % of control; T/C (endpoint: median tumor weight (est.), dose: 3.0 mg/kg/injection, schedule: Q01DX009 (ip), vehicle: saline + Tween-80 + alcohol, higher = larger tumour): 2 % of control; T/C (endpoint: median tumor weight (est.), dose: 3.0 mg/kg/injection, schedule: Q01DX009 (ip), vehicle: saline + alcohol, higher = larger tumour): 27 % of control; T/C (endpoint: median tumor weight (est.), dose: 6.0 mg/kg/injection, schedule: Q01DX009 (ip), vehicle: saline + alcohol, higher = larger tumour): 3 % of control

**Q.** Which results are given for `CC1(C)COCN1COCCOCN1COCC1(C)C`?
**A.** T/C (endpoint: median survival time, dose: 50.0 mg/kg/injection, schedule: Q04DX003 (ip), vehicle: saline, higher = longer survival): 103 % of control; T/C (endpoint: median survival time, dose: 100.0 mg/kg/injection, schedule: Q04DX003 (ip), vehicle: saline, higher = longer survival): 95 % of control

**Q.** For `O=C(O)CC(NC(=O)CP(=O)(O)O)C(=O)O` (configuration not stated), which T/C (endpoint: median survival time, dose: 38.9 mg/kg/injection, schedule: Q01DX004 (ip), vehicle: saline, higher = longer survival) is on record?
**A.** Its T/C is 109 % of control.

**Q.** What about the T/C (endpoint: median survival time, dose: 64.8 mg/kg/injection, schedule: Q01DX004 (ip), vehicle: saline, higher = longer survival) of the same compound?
**A.** Its T/C is 114 % of control.

**Q.** And the T/C (endpoint: median survival time, dose: 75.0 mg/kg/injection, schedule: Q02DX010 (ip), vehicle: saline, higher = longer survival)?
**A.** Its T/C is 176 % of control.

**Q.** And the T/C (endpoint: median survival time, dose: 150.0 mg/kg/injection, schedule: Q02DX010 (ip), vehicle: saline, higher = longer survival)?
**A.** Its T/C is 169 % of control.

**Q.** What about the T/C (endpoint: median survival time, dose: 180.0 mg/kg/injection, schedule: Q01DX004 (ip), vehicle: saline, higher = longer survival) of the same compound?
**A.** Its T/C is 124 % of control.

**Q.** What about the T/C (endpoint: median survival time, dose: 300.0 mg/kg/injection, schedule: Q02DX010 (ip), vehicle: saline, higher = longer survival) of the same compound?
**A.** The T/C was 181 % of control.

Reference: PubChem BioAssay AID288 (DTP/NCI, 2004)
